Where a name gives a salt, the structure may show the parent alone.
target: T1, human NK1 receptor (Homo sapiens, UniProt P25103); test: [3H]substance P binding at human NK1 receptors in CHO cells; details: affinity to the NK-1 receptor; [3H]substance P 0.6 nM displacement, CHO cell membranes, 60 min at room temperature
T1 construct: expressed in transfected cells; host or cells: CHO cells infected with the Semliki virus expression system; membrane suspension used
Method: The affinity of test compounds for the NK1 receptor was evaluated at human NK1 receptors in CHO cells infected with the human NK1 receptor (using the Semliki virus expression system) and radiolabelled with [^3H]substance P (final concentration 0.6 nM). Binding assays were performed in HEPES buffer (50 mM, pH 7.4) containing BSA (0.04%) leupeptin (8 μg/ml), MnCl2 (3 mM) and phosphoramidon (2 μM). Binding assays consisted of 250 μl of membrane suspension (1.25×10^5 cells/assay tube), […] of buffer of displacing agent and 125 μl of [^3H]substance P. Displacement curves were determined with at least seven concentrations of the compound. The assay tubes were incubated for 60 min at room temperature after which time the tube contents were rapidly filtered under vacuum through GF/C filters presoaked for 60 min with PEI (0.3%) with 2×2 ml washes of HEPES buffer (50 mM, pH 7.4). The radioactivity retained on the filters was measured by scintillation counting. All assays were performed in triplicate in at least 2 separate experiments.

T1 sequence (P25103 whole entry): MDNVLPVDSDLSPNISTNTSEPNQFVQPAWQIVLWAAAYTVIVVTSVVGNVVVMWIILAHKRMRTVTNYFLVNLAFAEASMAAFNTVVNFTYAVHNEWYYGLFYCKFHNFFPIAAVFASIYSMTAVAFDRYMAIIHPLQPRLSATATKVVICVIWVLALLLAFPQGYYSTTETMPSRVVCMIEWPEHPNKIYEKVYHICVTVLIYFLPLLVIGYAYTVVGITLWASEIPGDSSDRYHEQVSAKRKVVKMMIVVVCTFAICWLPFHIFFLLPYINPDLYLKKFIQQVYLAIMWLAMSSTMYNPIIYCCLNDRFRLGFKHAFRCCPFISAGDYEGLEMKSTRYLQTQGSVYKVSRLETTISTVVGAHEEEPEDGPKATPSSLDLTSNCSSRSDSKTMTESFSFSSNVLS

Ki [nM]	SMILES
15.5	CN1CC(c2ccccc2)C2(CCN(C(=O)c3cc(C(F)(F)F)cc(C(F)(F)F)c3)CC2)OC1=O (racemic) [Example 18, (5RS)-9-(3,5-bis-trifluoromethyl-benzoyl)-3-methyl-5-phenyl-1-oxa-3,9-diaza-spiro[5.5]undecan-2-one]
1.7	O=C1NCC(c2ccc(F)c(F)c2)C2(CCN(C(=O)c3cc(C(F)(F)F)cc(C(F)(F)F)c3)CC2)O1 (racemic) [Example 2, (5RS)-9-(3,5-bis-trifluoromethyl-benzoyl)-5-(3,4-difluoro-phenyl)-1-oxa-3,9-diaza-spiro[5.5]undecan-2-one]
13.2	COc1nc(OC)nc(N2CC(c3ccccc3)C3(CCN(C(=O)c4cc(C(F)(F)F)cc(C(F)(F)F)c4)CC3)OC2=O)n1 (stereo not drawn) [Example 17, (5RS)-9-(3,5-bis-trifluoromethyl-benzoyl)-3-(4,6-dimethoxy-[1,3,5]triazin-2-yl)-5-phenyl-oxa-1-3,9-diaza-spiro[5.5]undecan-2-one]
6.17	O=C1OC2(CCN(C(=O)c3cc(C(F)(F)F)cc(C(F)(F)F)c3)CC2)C(c2ccccc2)CN1Cc1cccnc1 (racemic) [Example 16, (5RS)-9-(3,5-bis-trifluoromethyl-benzoyl)-5-phenyl-3-pyridin-3-ylmethyl-1-oxa-3,9-diaza-spiro[5.5]undecan-2-one]
3.89	CN1CCC(N2CC(c3ccccc3)C3(CCN(C(=O)c4cc(C(F)(F)F)cc(C(F)(F)F)c4)CC3)OC2=O)CC1 (racemic) [Example 12, (5RS)-9-(3,5-bis-trifluoromethyl-benzoyl)-3-(1-methyl-piperidin-4-yl)-5-phenyl-1-oxa-3,9-diaza-spiro[5.5]undecan-2-one]
12.6	Cc1ccc(C2CNC(=O)OC23CCN(C(=O)c2cc(C(F)(F)F)cc(C(F)(F)F)c2)CC3)cc1C (racemic) [Example 9, (5RS)-9-(3,5-bis-trifluoromethyl-benzoyl)-5-(3,4-dimethyl-phenyl)-1-oxa-3,9-diaza-spiro[5.5]undecan-2-one]
3.47	CN(C)CCCN1CC(c2ccccc2)C2(CCN(C(=O)c3cc(C(F)(F)F)cc(C(F)(F)F)c3)CC2)OC1=O (stereo not drawn) [Example 25, (5RS)-9-(3,5-bis-trifluoromethyl-benzoyl)-3-(3-dimethylamino-4-yl-propyl)-5-phenyl-1-oxa-3,9-diaza-spiro[5.5]undecan-2-one]
19.1	O=C(c1cc(C(F)(F)F)cc(C(F)(F)F)c1)N1CCC2(CC1)OC(=O)N(C1CCOCC1)CC2c1ccccc1 (racemic) [Example 13, (5RS)-9-(3,5-bis-trifluoromethyl-benzoyl)-5-phenyl-3-(tetrahydro-pyran-4-yl)-1-oxa-3,9-diaza-spiro[5.5]undecan-2-one]
5.13	O=C1NCC(c2ccccc2)C2(CCN(C(=O)c3cc(C(F)(F)F)cc(C(F)(F)F)c3)CC2)O1 (racemic) [Example 4, (5RS)-9-(3,5-bis-trifluoromethyl-benzoyl)-5-phenyl-1-oxa-3,9-diaza-spiro[5.5]undecan-2-one]
6.31	O=C1OC2(CCN(C(=O)c3cc(C(F)(F)F)cc(C(F)(F)F)c3)CC2)C(c2ccccc2)CN1CCN1CCOCC1 (stereo not drawn) [Example 27, (5RS)-9-(3,5-2is-trifluoromethyl-benzoyl)-3-(2-morpholin-4-yl-ethyl)-5-phenyl-1-oxa-3,9-diaza-spiro[5.5]undecan-2-one hydrochloride]
19.1	COCCN1CC(c2ccc(F)c(F)c2)C2(CCN(C(=O)c3cc(C(F)(F)F)cc(C(F)(F)F)c3)CC2)OC1=O (racemic) [Example 19, (5RS)-9-(3,5-bis-trifluoromethyl-benzoyl)-5-(3,4-difluoro-phenyl)-3-(2-methoxy-ethyl)-1-oxa-3,9-diaza-spiro[5.5]undecan-2-one]
14.8	COc1cccc(C2CNC(=O)OC23CCN(C(=O)c2cc(C(F)(F)F)cc(C(F)(F)F)c2)CC3)c1 (racemic) [Example 10, (5RS)-9-(3,5-bis-trifluoromethyl-benzoyl)-5-(3-methoxy-phenyl)-1-oxa-3,9-diaza-spiro[5.5]undecan-2-one]
23.4	O=C1NCC(c2ccccc2Cl)C2(CCN(C(=O)c3cc(C(F)(F)F)cc(C(F)(F)F)c3)CC2)O1 (racemic) [Example 11, (5RS)-9-(3,5-bis-trifluoromethyl-benzoyl)-5-(2-chloro-phenyl)-1-oxa-3,9-diaza-spiro[5.5]undecan-2-one]
3.47	O=C1OC2(CCN(C(=O)c3cc(C(F)(F)F)cc(C(F)(F)F)c3)CC2)C(c2ccccc2)CN1CCCN1CCOCC1 (racemic) [Example 24, (5RS)-9-(3,5-bis-trifluoromethyl-benzoyl)-3-(3-morpholin-4-yl-propyl)-5-phenyl-1-oxa-3,9-diaza-spiro[5.5]undecan-2-one]
15.8	O=C1OC2(CCN(C(=O)c3cc(C(F)(F)F)cc(C(F)(F)F)c3)CC2)C(c2ccccc2)CN1CCO (racemic) [Example 22, (5RS)-9-(3,5-bis-trifluoromethyl-benzoyl)-3-(2-hydroxy-ethyl)-5-phenyl-1-oxa-3,9-diaza-spiro[5.5]undecan-2-one]
3.39	O=C1OC2(CCN(C(=O)c3cc(C(F)(F)F)cc(C(F)(F)F)c3)CC2)C(c2ccccc2)CN1CCCN1CCCC1 (racemic) [Example 23, (5RS)-9-(3,5-bis-trifluoromethyl-benzoyl)-5-phenyl-3-(3-pyrrolidin-1-yl-propyl)-1-oxa-3,9-diaza-spiro[5.5]undecan-2-one]
5.13	O=C1NCC(c2cccc(Cl)c2)C2(CCN(C(=O)c3cc(C(F)(F)F)cc(C(F)(F)F)c3)CC2)O1 (racemic) [Example 1, (5RS)-9-(3,5-bis-trifluoromethyl-benzoyl)-5-(3-chloro-phenyl)-1-oxa-3,9-diaza-spiro[5.5]undecan-2-one]
4.07	O=C1OC2(CCN(C(=O)c3cc(C(F)(F)F)cc(C(F)(F)F)c3)CC2)C(c2ccccc2)CN1CCCN1CCC(O)C1 (racemic) [Example 26, (5RS)-9-(3,5-bis-trifluoromethyl-benzoyl)-3-[3-(3-hydroxy-pyrrolidin-1-yl)-propyl]-5-phenyl-1-oxa-3,9-diaza-spiro[5.5]undecan-2-one]
2.63	O=C1NCC(c2ccc(Cl)c(Cl)c2)C2(CCN(C(=O)c3cc(C(F)(F)F)cc(C(F)(F)F)c3)CC2)O1 (racemic) [Example 3, (5RS)-9-(3,5-bis-trifluoromethyl-benzoyl)-5-(3,4-dichloro-phenyl)-1-oxa-3,9-diaza-spiro[5.5]undecan-2-one]
6.76	O=C1OC2(CCN(C(=O)c3cc(C(F)(F)F)cc(C(F)(F)F)c3)CC2)C(c2ccccc2)CN1CCCO (racemic) [Example 21, (5RS)-9-(3,5-bis-trifluoromethyl-benzoyl)-3-(3-hydroxy-propyl)-5-phenyl-1-oxa-3,9-diaza-spiro[5.5]undecan-2-one]
10.7	Cc1ccccc1C1CNC(=O)OC12CCN(C(=O)c1cc(C(F)(F)F)cc(C(F)(F)F)c1)CC2 (racemic) [Example 7, (5RS)-9-(3,5-bis-trifluoromethyl-benzoyl)-5-o-tolyl-1-oxa-3,9-diaza-spiro[5.5]undecan-2-one]
11.5	O=C1OC2(CCN(C(=O)c3cc(C(F)(F)F)cc(C(F)(F)F)c3)CC2)C(c2ccccc2)CN1CCN1CCCC1 (racemic) [Example 30, (5RS)-9-(3,5-bis-trifluoromethyl-benzoyl)-5-phenyl-3-(2-pyrrolidin-1-yl-ethyl)-1-oxa-3,9-diaza-spiro[5.5]undecan-2-one; hydrochloride]
10.5	CN1CCN(CCCN2CC(c3ccccc3)C3(CCN(C(=O)c4cc(C(F)(F)F)cc(C(F)(F)F)c4)CC3)OC2=O)CC1 (racemic) [Example 29, (5RS)-9-(3,5-bis-trifluoromethyl-benzoyl)-3-[3-(4-methyl-piperazin-1-yl)-propyl]-5-phenyl-1-oxa-3,9-diaza-spiro[5.5]undecan-2-one]
7.41	CN(C)CCN1CC(c2ccccc2)C2(CCN(C(=O)c3cc(C(F)(F)F)cc(C(F)(F)F)c3)CC2)OC1=O (racemic) [Example 28, (5RS)-9-(3,5-bis-trifluoromethyl-benzoyl)-3-(2-dimethylamino-ethyl)-5-phenyl-1-oxa-3,9-diaza-spiro[5.5]undecan-2-one hydrochloride]
11	O=C1NCC(c2ccc(Cl)cc2)C2(CCN(C(=O)c3cc(C(F)(F)F)cc(C(F)(F)F)c3)CC2)O1 (racemic) [Example 8, (5RS)-9-(3,5-bis-trifluoromethyl-benzoyl)-5-(4-chloro-phenyl)-1-oxa-3,9-diaza-spiro[5.5]undecan-2-one]
8.51	O=C1NCC(c2cccc(F)c2F)C2(CCN(C(=O)c3cc(C(F)(F)F)cc(C(F)(F)F)c3)CC2)O1 (racemic) [Example 5, (5RS)-9-(3,5-bis-trifluoromethyl-benzoyl)-5-(2,3-difluoro-phenyl)-1-oxa-3,9-diaza-spiro[5.5]undecan-2-one]
9.77	O=C1NCC(c2cc(F)ccc2F)C2(CCN(C(=O)c3cc(C(F)(F)F)cc(C(F)(F)F)c3)CC2)O1 (racemic) [Example 6, (5RS)-9-(3,5-bis-trifluoromethyl-benzoyl)-5-(2,5-difluoro-phenyl)-1-oxa-3,9-diaza-spiro[5.5]undecan-2-one]
6.61	CN(C)C(=O)CN1CC(c2ccccc2)C2(CCN(C(=O)c3cc(C(F)(F)F)cc(C(F)(F)F)c3)CC2)OC1=O (racemic) [Example 14, (5RS)-2-[9-(3,5-bis-trifluoromethyl-benzoyl)-2-oxo-5-phenyl-1-oxa-3,9-diaza-spiro[5.5]undec-3-yl]-N,N-dimethyl-acetamide]
